Results taken from patent US11026940B2, “Compositions for the mobilization, homing, expansion and differentiation of stem cells and methods of using the same” (Ampio Pharmaceuticals, Inc., priority 2013, dated 2021).
Several values for one entry are separate records, joined by “and”; a condition that tells them apart may be missing. Equal entries are not always repeated.

Assays:
Format in all cases: cell-based, human
Collagen 2A1 = assay: Stem cell chondrogenesis, real time PCR gene expression: Collagen 2A1; conditions: for Cp Coll / Mean regulation: Collagen 2A1; for Cp Coll / Mean regulation / Mean ΔCp / ΔCp: Day 22; for Mean regulation: vs saline; for Mean ΔCp / ΔCp: Collagen 2A1 vs GAPDH; for regulation, Collagen 2A1 / Mean regulation, Collagen 2A1: fold regulation vs saline; for regulation, Collagen 2A1 / ΔCp, Collagen 2A1 / 2^-ΔΔCp vs saline, Collagen 2A1 / ΔΔCp vs saline, Collagen 2A1: single replicate well; for Mean regulation, Collagen 2A1 / Mean ΔCp, Collagen 2A1: triplicate wells; for ΔCp, Collagen 2A1: human bone marrow MSC, chondrogenic medium + TGF beta 3; for ΔCp, Collagen 2A1 / 2^-ΔΔCp vs saline, Collagen 2A1 / ΔΔCp vs saline, Collagen 2A1 / Mean ΔCp, Collagen 2A1: vs Actin
MMP13 = assay: Stem cell chondrogenesis, real time PCR gene expression: MMP13; conditions: for Cp Coll / Mean regulation: MMP13; for Cp Coll / Mean regulation / Mean ΔCp / ΔCp: Day 22; for Mean regulation: vs saline; for Mean ΔCp / ΔCp: MMP13 vs GAPDH
Protocol: (§1) • Stem Cells: Bone marrow derived human mesenchymal stem cells: Passage 5 Bone marrow derived human mesenchymal stem cells (HUXMA-01001, Cyagen Biosciences, Sunnyvale Calif.) • Mesenchymal Stem Cell Chondrogenic Differentiation medium (GUXMX-90041, Cyagen Biosciences, Sunnyvale Calif.) • TheraPEAK MSCGM chemically defined Stem cell medium (190632 Lonza) • 1 mM Dexamethasone acetate and mifepristone in absolute ethanol (Sigma) • Saline or 0.9% Sodium chloride for injection ZR Flush (Excelsior Medical, Neptune N.J.) • Sterile filtered 0.6 mM sodium caprylate in saline (sigma) • Sterile filtered 3 mM NAT in saline (sigma); To prepare, heat at 60° C. for 30 minutes then sonicate for 5 minutes. • Sterile filtered 10 mM DADKP in saline • 0.2 μM syringe filters • Hepes buffered saline, Trypsin/EDTA, Trypsin neutralizing solution (Lonza reagent pack) • 182 cm2 tissue culture flasks • pipettes and sterile tips • Tissue culture hood, humidified CO2 incubator, water or bead bath • 24 well tissue culture plates • Qiagen RNeasy plus spin columns (Qiagen 74134) • Qiagen RT2 qPCR primer pairs for Collagen 2A1, MMP13, TIMP1, Aggrecan, GAPDH, and Actin B • Roche Sybr green I master mix and Invitrogen Superscript VILO master mix. • Roche 480 lightcycler
(§2) The following stock drug treatment solutions were prepared in saline for injection and warmed to 37° C. in bath: • 4 μM dexamethasone • 4 μM mifepristone • 3 mM NAT • 0.6 mM caprylate • 80 μM DADKP • Mix of 3 mM NAT, 0.6 mM caprylate, 80 μM DADKP (“Ampion” mix)
(§3) Cyagen Chondrogenic Differentiation medium was prepared by manufacturer protocols but excluding dexamethasone and TGF beta 3 supplements, and warmed to 37° C. in bath.
(§4) The treatment protocol included expanding 5 HUXMA stem cells in 182 cm^2 flasks containing 40 mls TheraPEAK™ MSCGM to 80-90% confluence. Cells were trypsinized from the flasks and a 1.0×10^7 cell suspension of HUXMA stem cells was warmed in Cyagen Chondrogenic Differentiation medium. 20 μl of warmed cell suspension was spotted in the middle of each well of a 24-well tissue culture plate (200,000 cells per spot), and incubated at 37° C. and 5% CO2 for one hour.
(§5) The plates were removed from the incubator and an additional 720 μl chondrogenic medium was added to each well. 250 μl saline, or drug solutions were added to the appropriate wells in triplicate (bringing the final drug dilution to one-quarter of the stock drug treatment solution concentrations). 10 μl of TGF beta 3 solution (supplied by Cyagen) was added to each well, and the plates were returned to the incubator.
(§6) RNA isolation and analysis was conducted for all plates as follows at days 7, 14, and 22 post treatment (with the described medium exchanges). […] Qiagen RNeasy plus lysis buffer (with 2mercaptoethanol) was added to each well and gently shaken for 10 minutes. The lysed cell suspensions from each well were transferred to Qiashredder columns and spun at 14,000 rpm for 2 minutes. RNA isolation proceeded by RNeasy™ plus manufacturer's protocol. RNA was eluted from the Qiagen columns using 25 μl RNase free water.
(§7) cDNA synthesis and real time PCR was conducted as follows. First strand synthesis of cDNA from all samples was performed in 20 μl total volume using 10 μl isolated RNA. All cDNA reactions were then diluted with 30 μl nuclease free water. Real time PCR was then performed using 5 μl diluted cDNA, Roche Syber green master mix, and Qiagen RT^2 gPCR™ primer pairs in 20 μl total reaction volume. Relative gene expression was determined by delta deta Ct method.

SOX9 = assay: Stem cell chondrogenesis, real time PCR gene expression: SOX9; conditions: Day 14
Protocol: The treatment protocol included expanding 5 HUXMA stem cells in 182 cm^2 flasks containing 40 […] to 80-90% confluence. Cells were trypsinized from the flasks and a 1.0×10^7 cell suspension of HUXMA stem cells was warmed in Cyagen Chondrogenic Differentiation medium. 20 μl of warmed cell suspension was spotted in the middle of each well of a 24-well tissue culture plate (200,000 cells per spot), and incubated at 37° C. and 5% CO2 for one hour. […] Medium exchanges were performed every 3-4 days by aspirating the medium from the wells and replacing with fresh chondrogenic medium, diluted stocks, and TGF beta 3, as described above. […] Medium from the wells was removed and saved for further protein analysis. Qiagen RNeasy plus lysis buffer (with 2mercaptoethanol) was added to each well and gently shaken for 10 minutes. The lysed cell suspensions from each well were transferred to Qiashredder columns and spun at 14,000 rpm for 2 minutes. RNA isolation proceeded by RNeasyTM plus manufacturer's protocol. RNA was eluted from the Qiagen columns using 25 μl RNase free water. cDNA synthesis and real time PCR was conducted as follows. First strand synthesis of cDNA from all samples was performed in 20 μl total volume using 10 μl isolated RNA. All cDNA reactions were then diluted with 30 μl nuclease free water. Real time PCR was then performed using 5 μl diluted cDNA, Roche Syber green master mix, and Qiagen RT^2 gPCRTM primer pairs in 20 μl total reaction volume.

Aggrecan = assay: Stem cell chondrogenesis, real time PCR gene expression: Aggrecan; conditions: Day 22; for Mean ΔCp / ΔCp: Aggrecan vs Actin; for Cp Agg / Mean regulation: Aggrecan; for Mean regulation: vs saline
Protocol: as §1, §2, §3, §4, §5, §6, §7

TIMP1 = assay: Stem cell chondrogenesis, real time PCR gene expression: TIMP1; conditions: Day 22; for Mean ΔCp: TIMP1 vs Actin
Protocol: as §1, §2, §3, §4, §5, §6, §7

[1] = Day 7, vs Actin, single replicate well
[2] = vs Actin, single replicate well

With `CCCCCCCC(=O)[O-].[Na+]` [Caprylate, sodium caprylate] the “Cp Coll” value (Collagen 2A1; Table 12) was 22.93 and 25.6 and 24.26, the “Cp Coll” value (Collagen 2A1; Table 16) was 22.93 and 25.6 and 24.26 and the Mean regulation (Collagen 2A1; Table 12) was 101.18. The Mean regulation (Collagen 2A1; Table 16) was 101.18, the “Mean ΔCp” value (Collagen 2A1; Table 12) was 6.557 and the ΔCp (Collagen 2A1; Table 12) was 6.08 and 7.19 and 6.4. The “Mean ΔCp” value (Collagen 2A1; Table 16) was 6.557, the ΔCp (Collagen 2A1; Table 16) was 6.08 and 7.19 and 6.4 and the “regulation, Collagen 2A1” value (Collagen 2A1; Day 7) was 1.63 and −1.05 and −1.11. For the same compound, the “Mean regulation, Collagen 2A1” value (Collagen 2A1; Day 7) was −0.18, the “ΔCp, Collagen 2A1” value (Collagen 2A1; Day 7) was 6.03 and 6.81 and 6.88 and the “2^-ΔΔCp vs saline, Collagen 2A1” value (Collagen 2A1; Day 7) was 1.6283 and 0.9482 and 0.9033. The “ΔΔCp vs saline, Collagen 2A1” value (Collagen 2A1; Day 7) was −0.7 and 0.077 and 0.147, the “Mean ΔCp, Collagen 2A1” value (Collagen 2A1; Day 7) was 6.573 and the “regulation, Collagen 2A1” value (Collagen 2A1; Day 14) was 7.19 and 6.95 and 4.28. For the same compound, the “Mean regulation, Collagen 2A1” value (Collagen 2A1; Day 14) was 6.14, the “ΔCp, Collagen 2A1” value (Collagen 2A1; Day 14) was 8.21 and 8.26 and 8.96 and the “2^-ΔΔCp vs saline, Collagen 2A1” value (Collagen 2A1; Day 14) was 7.1934 and 6.9483 and 4.2772. For the same compound, the “ΔΔCp vs saline, Collagen 2A1” value (Collagen 2A1; Day 14) was −2.85 and −2.8 and −2.1, the “Mean ΔCp, Collagen 2A1” value (Collagen 2A1; Day 14) was 8.477 and the “regulation, MMP13” value (MMP13; Day 7, fold regulation vs saline, single replicate well) was −2.63 and 1.03 and −3.06. The “Mean regulation, MMP13” value (MMP13; Day 7, fold regulation vs saline, triplicate wells) was −1.55, the “ΔCp, MMP13” value (MMP13; Day 7, human bone marrow MSC, chondrogenic medium + TGF beta 3, vs Actin, single replicate well) was 6.03 and 4.59 and 6.25 and the “2^-ΔΔCp vs saline, MMP13” value (MMP13; [1]) was 0.3807 and 1.0329 and 0.3268. The “ΔΔCp vs saline, MMP13” value (MMP13; [1]) was 1.393 and −0.05 and 1.613, the “Mean ΔCp, MMP13” value (MMP13; Day 7, vs Actin, triplicate wells) was 5.623 and the “Cp Coll” value (MMP13; Table 12) was 20.28 and 20.31 and 20.73. For the same compound, the “Cp Coll” value (MMP13; Table 16) was 20.28 and 20.31 and 20.73, the Mean regulation (MMP13; Table 12) was 0.62 and the Mean regulation (MMP13; Table 16) was 0.62. For the same compound, the “Mean ΔCp” value (MMP13; Table 12) was 2.733, the ΔCp (MMP13; Table 12) was 3.43 and 1.9 and 2.87 and the “Mean ΔCp” value (MMP13; Table 16) was 2.733. For the same compound, the ΔCp (MMP13; Table 16) was 3.43 and 1.9 and 2.87, the “regulation, SOX9” value (SOX9; fold regulation vs saline, single replicate well) was 1.16 and 1.99 and 2.28 and the “Mean regulation, SOX9” value (SOX9; fold regulation vs saline, triplicate wells) was 1.81. The “ΔCp, SOX9” value (SOX9; human bone marrow MSC, chondrogenic medium + TGF beta 3, vs Actin, single replicate well) was 6.97 and 6.19 and 5.99, the “2^-ΔΔCp vs saline, SOX9” value (SOX9; [2]) was 1.1567 and 1.9862 and 2.2815 and the “ΔΔCp vs saline, SOX9” value (SOX9; [2]) was −0.21 and −0.99 and −1.19. For the same compound, the “Mean ΔCp, SOX9” value (SOX9; vs Actin, triplicate wells) was 6.383, the “Mean ΔCp” value (Aggrecan; Table 12) was 7.42 and the ΔCp (Aggrecan; Table 12) was 6.11 and 9.72 and 6.43. The “Mean ΔCp” value (Aggrecan; Table 16) was 7.42, the ΔCp (Aggrecan; Table 16) was 6.11 and 9.72 and 6.43 and the “Cp Agg” value (Aggrecan; Table 12) was 21.64 and 25.43 and 21.95. For the same compound, the “Cp Agg” value (Aggrecan; Table 16) was 21.64 and 25.43 and 21.95, the Mean regulation (Aggrecan; Table 12) was 10.81 and the Mean regulation (Aggrecan; Table 16) was 10.81. The “Cp TIMP1” value (TIMP1; TIMP1, Table 12) was 17.65 and 18.77 and 19.77, the “Cp TIMP1” value (TIMP1; TIMP1, Table 16) was 17.65 and 18.77 and 19.77 and the Mean regulation (TIMP1; TIMP1, vs saline, Table 12) was 1.12. For the same compound, the “Mean ΔCp” value (TIMP1; Table 12) was 3.143 and the “Mean ΔCp” value (TIMP1; Table 16) was 3.143.
